Test results published in PubChem BioAssay (NCI).
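1) Cells in 96-well plates. 2) Compound, 48 h, 5 concentrations. 3) Linear interpolation between surrounding doses. 4) Unreached endpoint = highest concentration. At the GI50, growth is halved. The concentration for full growth arrest is given as TGI.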

Columns and labels:
Test in all cases: DTP human tumour cell line panel, 48 h
[1] = tested on: K-562 leukemia
[2] = tested on: OVCAR-3 ovarian
[3] = tested on: UACC-257 melanoma
[4] = tested on: CCRF-CEM leukemia
[5] = tested on: OVCAR-4 ovarian
[6] = tested on: IGROV1 ovarian
[7] = tested on: T-47D breast
[8] = tested on: MALME-3M melanoma
[9] = tested on: OVCAR-8 ovarian
[10] = tested on: HOP-62 NSCLC
[11] = tested on: SF-295 CNS
[12] = tested on: HCT-15 colon
[13] = tested on: SR leukemia
[14] = tested on: A549 NSCLC
[15] = tested on: SN12C renal
[16] = tested on: HOP-92 NSCLC
[17] = tested on: 786-0 renal
[18] = tested on: RXF 393 renal
[19] = tested on: NCI-H460 lung
[20] = tested on: M14 melanoma
[21] = tested on: TK-10 renal
[22] = tested on: HL-60(TB) leukemia
[23] = tested on: SK-MEL-2 melanoma
[24] = tested on: NCI/ADR-RES ovarian
[25] = tested on: MCF7 breast
[26] = tested on: NCI-H226 lung
[27] = tested on: SK-MEL-28 melanoma
[28] = tested on: HS 578T breast
[29] = tested on: UO-31 renal
[30] = tested on: A498 renal
[31] = tested on: KM12 colon
[32] = tested on: PC-3 prostate
[33] = tested on: CAKI-1 renal
[34] = tested on: ACHN renal
[35] = tested on: SK-MEL-5 melanoma
[36] = tested on: SNB-75 CNS
[37] = tested on: OVCAR-5 ovarian
[38] = tested on: MDA-MB-231 breast
[39] = tested on: SF-268 CNS
[40] = tested on: SK-OV-3 ovarian
[41] = tested on: BT-549 breast
[42] = tested on: NCI-H522 lung
[43] = tested on: MDA-MB-435
[44] = tested on: EKVX NSCLC
[45] = tested on: HCT-116 colon
[46] = tested on: MOLT-4 leukemia
[47] = tested on: RPMI-8226 leukemia
[48] = tested on: SW-620 colon
[49] = tested on: SNB-19 CNS
[50] = tested on: HT29 colon
[51] = tested on: UACC-62 melanoma
[52] = tested on: HCC-2998 colon
[53] = tested on: LOX IMVI melanoma
[54] = tested on: NCI-H23 lung
[55] = tested on: DU-145 prostate
[56] = tested on: COLO 205 colon
[57] = tested on: U251 CNS
[58] = tested on: SF-539 CNS

`CN(c1ccc(C#N)c(Cl)c1)C1CCC(NC(=O)c2ccc(N3CCN(C4CN(c5ccc6c(c5)C(=O)N(C5CCC(=O)NC5=O)C6=O)C4)CC3)cc2)CC1` (stereo not drawn) was tested, and the GI50 [1] was over 100 µM, the TGI [1] was over 100 µM and the GI50 [2] was over 100 µM. For the same molecule, the TGI [2] was over 100 µM, the GI50 [3] was over 100 µM and the TGI [3] was over 100 µM. It also gave a GI50 [4] of over 100 µM, a TGI [4] of over 100 µM and a GI50 [5] of over 100 µM. For the same molecule, the TGI [5] was over 100 µM, the GI50 [6] was over 100 µM and the TGI [6] was over 100 µM. For the same molecule, the GI50 [7] was over 100 µM, the TGI [7] was over 100 µM and the GI50 [8] was 48.8 µM. It also gave a TGI [8] of over 100 µM, a GI50 [9] of over 100 µM and a TGI [9] of over 100 µM. The GI50 [10] was over 100 µM, the TGI [10] was over 100 µM and the GI50 [11] was over 100 µM. It also gave a TGI [11] of over 100 µM, a GI50 [12] of over 100 µM and a TGI [12] of over 100 µM. For the same molecule, the GI50 [13] was over 100 µM, the TGI [13] was over 100 µM and the GI50 [14] was over 100 µM. For the same molecule, the TGI [14] was over 100 µM, the GI50 [15] was over 100 µM and the TGI [15] was over 100 µM. For the same molecule, the GI50 [16] was 10.2 µM, the TGI [16] was 99.8 µM and the GI50 [17] was over 100 µM. The TGI [17] was over 100 µM, the GI50 [18] was over 100 µM and the TGI [18] was over 100 µM. The GI50 [19] was over 100 µM, the TGI [19] was over 100 µM and the GI50 [20] was 21.7 µM. The TGI [20] was 64.3 µM, the GI50 [21] was over 100 µM and the TGI [21] was over 100 µM. The GI50 [22] was over 100 µM, the TGI [22] was over 100 µM and the GI50 [23] was over 100 µM. The TGI [23] was over 100 µM, the GI50 [24] was over 100 µM and the TGI [24] was over 100 µM. For the same molecule, the GI50 [25] was over 100 µM, the TGI [25] was over 100 µM and the GI50 [26] was over 100 µM. The TGI [26] was over 100 µM, the GI50 [27] was over 100 µM and the TGI [27] was over 100 µM. The GI50 [28] was over 100 µM, the TGI [28] was over 100 µM and the GI50 [29] was over 100 µM. For the same molecule, the TGI [29] was over 100 µM, the GI50 [30] was over 100 µM and the TGI [30] was over 100 µM. The GI50 [31] was over 100 µM, the TGI [31] was over 100 µM and the GI50 [32] was over 100 µM. For the same molecule, the TGI [32] was over 100 µM, the GI50 [33] was over 100 µM and the TGI [33] was over 100 µM. The GI50 [34] was over 100 µM, the TGI [34] was over 100 µM and the GI50 [35] was over 100 µM. It also gave a TGI [35] of over 100 µM, a GI50 [36] of over 100 µM and a TGI [36] of over 100 µM. For the same molecule, the GI50 [37] was 47.6 µM, the TGI [37] was over 100 µM and the GI50 [38] was 18.9 µM. For the same molecule, the TGI [38] was 41.6 µM, the GI50 [39] was over 100 µM and the TGI [39] was over 100 µM. The GI50 [40] was over 100 µM, the TGI [40] was over 100 µM and the GI50 [41] was 98.6 µM. It also gave a TGI [41] of over 100 µM, a GI50 [42] of over 100 µM and a TGI [42] of over 100 µM. It also gave a GI50 [43] of over 100 µM, a TGI [43] of over 100 µM and a GI50 [44] of over 100 µM. The TGI [44] was over 100 µM, the GI50 [45] was over 100 µM and the TGI [45] was over 100 µM. It also gave a GI50 [46] of over 100 µM, a TGI [46] of over 100 µM and a GI50 [47] of over 100 µM. The TGI [47] was over 100 µM, the GI50 [48] was over 100 µM and the TGI [48] was over 100 µM. For the same molecule, the GI50 [49] was over 100 µM, the TGI [49] was over 100 µM and the GI50 [50] was over 100 µM. For the same molecule, the TGI [50] was over 100 µM, the GI50 [51] was over 100 µM and the TGI [51] was over 100 µM. For the same molecule, the GI50 [52] was over 100 µM, the TGI [52] was over 100 µM and the GI50 [53] was over 100 µM. The TGI [53] was over 100 µM, the GI50 [54] was over 100 µM and the TGI [54] was over 100 µM. For the same molecule, the GI50 [55] was over 100 µM, the TGI [55] was over 100 µM and the GI50 [56] was over 100 µM. The TGI [56] was over 100 µM, the GI50 [57] was 61.2 µM and the TGI [57] was over 100 µM. It also gave a GI50 [58] of over 100 µM and a TGI [58] of over 100 µM.
In the case of `CC(=O)OC(C)C(OC(C)=O)C(OC(C)=O)C(/C=C/C1CC=CC(=O)O1)OC(C)=O` (stereo not drawn), the GI50 [2] is reported as 30.8 µM, the TGI [2] is reported as 95.5 µM and the GI50 [3] is reported as 19.5 µM. For the same molecule, the TGI [3] was 42.1 µM, the GI50 [4] was 30.3 µM and the TGI [4] was over 100 µM. The GI50 [5] was 17.2 µM, the TGI [5] was 56.1 µM and the GI50 [6] was 32 µM. The TGI [6] was over 100 µM, the GI50 [7] was 27.3 µM and the TGI [7] was 80.1 µM. It also gave a GI50 [8] of 36.5 µM, a TGI [8] of over 100 µM and a GI50 [9] of 26.8 µM. It also gave a TGI [9] of 89.2 µM, a GI50 [10] of 37.8 µM and a TGI [10] of over 100 µM. It also gave a GI50 [11] of 51 µM, a TGI [11] of over 100 µM and a GI50 [12] of 32.2 µM. For the same molecule, the TGI [12] was over 100 µM, the GI50 [13] was 19.4 µM and the TGI [13] was 53.4 µM. The GI50 [15] was 10.5 µM, the TGI [15] was 36.4 µM and the GI50 [16] was 20.8 µM. For the same molecule, the TGI [16] was 64.6 µM, the GI50 [17] was 37.8 µM and the TGI [17] was over 100 µM. It also gave a GI50 [18] of 21.3 µM, a TGI [18] of 73.4 µM and a GI50 [19] of 32.7 µM. The TGI [19] was over 100 µM, the GI50 [20] was 29.5 µM and the TGI [20] was over 100 µM. For the same molecule, the GI50 [21] was 40.6 µM, the TGI [21] was over 100 µM and the GI50 [22] was 20.4 µM. It also gave a TGI [22] of 43.3 µM, a GI50 [23] of 35.9 µM and a TGI [23] of over 100 µM. The GI50 [24] was over 100 µM, the TGI [24] was over 100 µM and the GI50 [25] was 33.6 µM. For the same molecule, the TGI [25] was over 100 µM, the GI50 [26] was 42.6 µM and the TGI [26] was over 100 µM. The GI50 [27] was 16.8 µM, the TGI [27] was 46.6 µM and the GI50 [28] was 12.4 µM. The TGI [28] was 33.1 µM, the GI50 [29] was 42.8 µM and the TGI [29] was over 100 µM. It also gave a GI50 [30] of 16.9 µM, a TGI [30] of 45.3 µM and a GI50 [31] of 22.8 µM. For the same molecule, the TGI [31] was 61 µM, the GI50 [32] was 73.2 µM and the TGI [32] was over 100 µM. The GI50 [33] was 43.3 µM, the TGI [33] was over 100 µM and the GI50 [34] was 33.7 µM. It also gave a TGI [34] of over 100 µM, a GI50 [35] of 26.3 µM and a TGI [35] of over 100 µM. For the same molecule, the GI50 [36] was 10.3 µM, the TGI [36] was 28.6 µM and the GI50 [37] was 82.8 µM. The TGI [37] was over 100 µM, the GI50 [38] was 21.8 µM and the TGI [38] was 53.6 µM. It also gave a GI50 [39] of 27.5 µM, a TGI [39] of 75.7 µM and a GI50 [40] of 78 µM. For the same molecule, the TGI [40] was over 100 µM, the GI50 [41] was 25.5 µM and the TGI [41] was 70.6 µM. The GI50 [42] was 22.9 µM, the TGI [42] was 60.3 µM and the GI50 [43] was 37.6 µM. The TGI [43] was over 100 µM, the GI50 [44] was 39.6 µM and the TGI [44] was over 100 µM. For the same molecule, the GI50 [45] was 20.4 µM, the TGI [45] was 48.4 µM and the GI50 [46] was 29.2 µM. The TGI [46] was 97.5 µM, the GI50 [47] was 26.7 µM and the TGI [47] was 83.5 µM. The GI50 [48] was 16.1 µM, the TGI [48] was 46.3 µM and the GI50 [49] was 33.5 µM. It also gave a TGI [49] of over 100 µM, a GI50 [50] of 15.8 µM and a TGI [50] of 47.7 µM. For the same molecule, the GI50 [51] was 25.4 µM, the TGI [51] was 67.8 µM and the GI50 [52] was 22.9 µM. For the same molecule, the TGI [52] was 45.3 µM, the GI50 [53] was 29.1 µM and the TGI [53] was over 100 µM. For the same molecule, the GI50 [54] was 31.3 µM, the TGI [54] was 98 µM and the GI50 [55] was 18.8 µM. It also gave a TGI [55] of 43.1 µM, a GI50 [56] of 22 µM and a TGI [56] of 64.6 µM. For the same molecule, the GI50 [57] was 30.7 µM, the TGI [57] was over 100 µM and the GI50 [58] was 21.5 µM. The TGI [58] was 43.5 µM.
